Read-outs that look alike come from different tables or passages of the source.

The test system of assay [1] is human neutrophils. Nature of the assay: Assay (d): Production of platelet-activating factor (PAF), A23187-stimulated neutrophils. The format is cell-based. The method, then: Blood is obtained from normal humans and neutrophils are isolated as described for the arachidonic acid release assay, above. The final leukocyte preparation should be of greater than 95% purity and viability.
Neutrophils are suspended in PBS at concentrations of 5 to 20×10^6 cells per ml. Cells are added to test tubes and treated with the desired compounds for 5 to 10 minutes, then challenged with calcium ionophore A23187, 2 μM and 20-30 μCi of [3H]acetic acid (NEN-Dupont, Boston, Mass.), or the vehicle of PBS with 0.25-1 mg/ml. After 5 to 20 minutes, the reactions are terminated by addition of an equal volume of chloroform:methanol (1:2, v/v) to the samples and the lipiris are extracted by addition of equal volumes of chloroform and distilled water. The samples are vortexed and centrffuged at high speed and the chloroform layer removed to a clean tube.
The chloroform from each tube is evaporated to dryness and the material suspended in a small volume of chloroform or chloroform:methanol (25-100 μl) and the total material spotted on a Silica TLC plate. The plates are developed in chloroform/methanol/acetic acid/water (50:25:8:4, v/v) visualized by radioscanning (Bioscan) and the product, [^3 H]PAF, is scraped and quantified by liquid scintillation spectroscopy. With this TLC system, the Rf value for a synthetic standard of PAF is approximately 0.33.

For assay [2], the system named is human monocytes. The assay can be described thus: Assay (f): stimulated eicosanoid (PGE2, LTC4) release by human monocytes. The format is cell-based. The note with it: human monocyte cells, A23187. The procedure: Leukocyte-rich leukopaks obtained from Biological Specialties (Lansdale, Pa.) are collected from male volunteers who are not taking anti-inflammatory drugs. Leukopaks are centrifuged (90×g for 15 min) twice to remove the platelet-rich plasma. The cell pellet is washed by centrifugation and are resuspended in HBSS without Ca^2+ or Mg^2+. Histopaque 1077 is layered under the cell suspension and centrifuged at 400×g for 30 min to obtain the buffy coat. The interfacial buffy coat, containing monocytes and lymphocytes, is removed and saved. The buffy coat is washed twice with HBSS without Ca^2+ or Mg^2+ by centrifugation. The cell pellet (4-6×10^8 cells/30 mls) is resuspended in iso-osmotic media (RPMI-1640, 10% heat inactivated fetal bovine serum (FBS), 0.2 mM L-glutamine, 2.5 mM HEPES) and layered over an equal volume of 46% Percol mixture (10×PBS/Percol; 9.25/0.75) and 54% iso-osmotic media and centrifuged for 30 min at 1000×g (Marshall and Roshak, Biochem. Cell Biol. 71: 331-339, 1993). The monocyte population located at the interface of the Percoll gradient is removed and washed twice in HBSS without Ca^2+ or Mg^2+.
Monocytes (5×10^6 /ml are incubated as a suspension in serum-free RPMI-1640 medium containing the vehicle DMSO (<1%) or drug for 30 min at 27° C. after which vehicle or stimuli is added for the indicated time. The stimulating agent is solubilized in DMSO and appropriate vehicle controls are included in all experiments. The amount of stimuli is chosen from the linear portion of a concentration versus product curve usually representing 60-80% maximal stimulation over the indicated incubation time at 37° C. (A23187, 1 μM, (15 min). The reaction is terminated by reduction of pH through addition of citric acid and centrifugation (10 min, 400×g, 4° C.). Cell viability is monitored before and after experiments using trypan blue exclusion. The cell-free media is decanted and stored at -70° C. until analyzed. Prostaglandin E2 and LTC4 are directly measured in cell-free media using enzyme immunoassay (EIA) kits purchased from Caymen Chemical Co. (Ann Arbor, Mich.) Sample or standard dilutions are made with appropriate media and analyzed in triplicate. Results are obtained by extrapolation from a standard curve prepared in the media and expressed as pg or ng/ml of sample.

Assay [3] has as its system TPA-induced Mouse Ear Inflammation. The assay can be described thus: Assay (g): TPA-induced mouse ear inflammation (ear edema, MPO). The format is in vivo. The procedure: (§1) Male Balb/c inbred mice are obtained from Charle River Breeding Laboratories (Kingston, N.Y.). Within a single experiment mice (22-25 g) are age-matched. These in vivo experiments typically involve the use of 5-6 animals/group.
TPA (12-0-tetradecanoylphorbol 13-acetate) (Sigma Chemical Company) in acetone ([…]) is applied to the inner and outer surfaces of the left ear of BALB/c male mice. The thickness of both ears is then measured with a dial micrometer (Mitutoyo, Japan) at both 2 and 4 hours after treatment, and the data expressed as the change in thickness (10^-3 cm) between treated and untreated ears. […] After measuring the edema, the inflammed left ears are removed and stored at -70° C. until they were assayed for MPO (myeloperoxidase) activity where appropriate.
(§2) On the day of the assay, partially thawed ear tissues are minced and then homogenized (10% w/v) with a Tissumizer homogenizer (Tekmar Co.) in 50 mM phosphate buffer (pH 6) containing 0.5% HTAB. The tissue homogenates are taken through three cycles of freeze-thaw, followed by brief sonication (10 sec). The method of Bradley et at. is used with modifications as described. […] Supernatant MPO activity is quantified kinetically (change in absorbance measured over 3 min, sampled at 15-sec intervals) using a Beckman DU-7 spectrophotometer and a Kinetics Analysis package (Beckman Instruments, Inc.). One unit of MPO activity is defined as that degrading one micromole of peroxide per minute at 25° C.
Statistical analysis is done using Student's "t" test.

Assay [4] relates to Arachidonic acid induced ear inflammation. The assay can be described thus: Assay (h): Arachidonic acid induced ear inflammation (ear edema, MPO). Particulars: 1 mg/ear. The format is in vivo, mouse. The method, then: as §1, §2
Arachidonic acid is dissolved in acetone (1 mg/ear) to the left ear of BALB/c male mice. The thickness of both cars is measured with a constant pressure thickness guage 1 hour after treatment and the data expressed as the change in thickness between treated and untreated ears. Test compounds or vehicle are given at the time of AA application. The inflammatory cell infiltration is measured by MPO activity as described above in the TPA ear edema assay. After the edema measurements are made, the inflamed ears are removed and assayed for MPO activity.

[5] abbreviates: read-out: IC50 for LTC4 release.

Turning to `N#CCC(CSc1ccc(Cc2ccccc2)cc1)NC(=O)CCCCCCc1ccccc1` (centres unmarked) [Example 2, [3-(7-Phenylheptylamido)-4-(4-phenylmethyl)phenylthio]butylnitrile], in assay [1] (at greater than 30 uM), the “inhibitory activity in PAF production assay” value was “did not demonstrate positivr activity”. For the same compound, the IC50 – broadly, the point on the concentration scale where inhibition reaches its midpoint – in assay [2] (setting [5]) was 521 nM; in assay [2] (read-out: IC50 of PGE2 release) it was ~100 nM.
Regarding `NC(=O)N(O)CCC(CSc1ccc(Cc2ccccc2)cc1)NC(=O)CCCCCCc1ccccc1` (racemic) [Example 1, N-[3-(7-phenylheptylamido)-4-(4-phenylmethyl)phenylthio]-butyl-N-hydroxy urea], the IC50 is ~10 µM in assay [1] (Neutrophil, human neutrophils, A23187); 220 nM in assay [2] (setting [5]); < 100 nM in assay [2] (read-out: IC50 of PGE2 release). For the same compound, the “MPO activity, percent change, TPA ear model” value in assay [3] (topically, 1 mg/ear) is recorded as -68%. In assay [3] (topically, 1 mg/ear), the “ear swelling (edema), percent change, TPA ear model” value is -43%. Further, the “inhibition of inflammatory cell infiltration, TPA ear model” value in assay [3] (typically dosed at 50 mg/ear) is “demonstrated activity as an inhibitor of the inflammatory cell infiltration”. In assay [4], the “MPO, AA ear model” value is -53%. Further, the “reduction in ear swelling, AA ear model” value in assay [4] is recorded as -36%.

For the origin of these results see US5496855A, “Anti-inflammatory compounds” (SmithKline Beecham Corp., priority 1995, dated 1996).
